Measurements from patent publication US11116732B2, “Carotenoid-containing cognitive function improving composition for use in exercise therapy for improving cognitive function” (ASTAREAL CO., LTD., priority 2016, dated 2021).

How the values were obtained:
[1] = tested on: hippocampal gene expression; experiment: Hippocampal gene expression by DNA microarray and IPA network analysis; format: in vivo, mouse
Description: (§1) All the mice used in this experiment were divided so that the weight was equalized at the preliminary breeding end point. These were divided into three groups of placebo+rest (CON), placebo+low intensity exercise (ME), and low intensity exercise+0.5% ASX uptake (ME+ASX) (each n=8). Mice were bred each one per a cage.
The brain was removed two days after 4 weeks training and ASX uptake. The hippocampus was fractionated from the collected brain (Hirano M, Rakwal R, Shibato J, Sawa H, Nagashima K, Ogawa Y, Yoshida Y, Iwahashi H, Niki E, Masuo Y. Proteomics- and transcriptomics-based screening of differentially expressed proteins and genes in brain of Wig rat: a model for attention deficit hyperactivity disorder (ADHD) research. J Proteome Res 7: 2471-2489, 2008). The hippocampus was immediately frozen with liquid nitrogen and stored in a freezer at −80° C. […]
3) Hybridization: Samples of fluorescently labeled control group (CON group) and experiment group (ME group, ME+ASX group) are assayed on the same Microarray chip and hybridized with a 60 base pair probe on the slide glass. […] In the program at this time, the color intensity of Cy3 and Cy5 of all the probes was measured. 6) Standardization of data: For standardization of data, LOWESS (locally weighted linear regression) was used, and logarithmic and logarithmic error rates standardized from Cy3 and Cy5 signals were calculated. […]

[2] = tested on: adult hippocampal neurogenesis (hippocampal dentate gyrus); experiment: Adult hippocampal neurogenesis (AHN): immunohistochemical count of Ki67+, BrdU+ and BrdU+/NeuN+ cells after 4 weeks of ASX uptake with or without low intensity exercise; format: in vivo, mouse; details: for number of newly matured cells (BrdU+/NeuN+), rate of change relative to the CON group / number of proliferating cells (Ki67+), rate of change relative to the CON group / number of viable cells (BrdU+), rate of change relative to the CON group: 4 weeks
Description: (§2) For the purpose of clarifying whether or not hippocampal function improving effect is enhanced by low intensity exercise, influence of combined use of low intensity exercise (7 m/min) of VT or less and ASX uptake (0.5% by weight) on AHN and spatial cognitive function was investigated.
as §1, with “four” for “three”, “(ME), 0.5% ASX uptake+rest (ASX),” for “(ME),”, “and the” for “and”, “(FIG. 5).” for “(each n=8).”
0.5% ASX uptake or placebo uptake was carried out.
The mice in the low intensity exercise group imposed a treadmill running exercise of 7 m/min for 30 minutes a day. Also, the mice in the rest group were placed on the treadmill for equal time with the running exercise training and were not allowed to exercise anything (control experiment). For the running exercise training, a treadmill for small animals (KN-73, Natsume, Japan) was used. In either of the groups, training or control experiment was imposed once a day in the dark period, which became active for mice.
BrdU (bromodeoxyuridine) is taken up as an analog molecule of thymidine into the cell nucleus at the S phase of the cell cycle and is used to evaluate cell division, proliferation, and subsequent survival. Thus, BrdU (100 mg/kg BW) was intraperitoneally administered to all mice during three days before starting running exercise and 0.5% ASX uptake (FIG. 5). Administration was carried out only once a day (AM8:00).
Immunohistochemical staining method is a method of labeling and visualizing a target DNA or protein on a tissue utilizing an antigen antibody reaction. In visualization, it is carried out by labelling an enzyme or a fluorescent substance, etc., which is a substance to be a marker, to an antibody which bounds to an antigen, and reacting with the marker to colorize the antibody adhered portion. In this experiment, fluorescent antibody method was used for evaluation of proliferating cells, viable cells and newly matured neurons.
In this experiment, BrdU was identified for the evaluation of neoplastic cells. For identification, rat anti-BrdU antibody (Rat anti-BrdU, AbD Serotec) was used as a primary antibody and CyTM3 donkey anti-rat IgG antibody (Cy3 Donkey Anti-Rat IgG, JACKSON) was used as a secondary antibody to fluorescently label with red color and visualized. In addition, for identification of mature neurons, mouse anti-NeuN antibody (Mouse Anti-Neuronal Nuclei monoclonal antibody, Chemicon) was used as a primary antibody, and for visualization, a fluorescently labeled secondary antibody AMCA donkey anti-mouse IgG antibody (AMCA Donkey Anti-Mouse IgG, JACKSON) was used and stained to blue color.
According to this procedure, newly matured cells were evaluated by BrdU+/NeuN+ reaction (red+bluish white). The procedures of the fluorescent antibody method were shown below.
In this experiment, for evaluation of cell proliferation, it was identified by Ki67. For identification, rabbit anti-Ki67 antibody (Rabbit anti-Ki67, Abcam) was used as a primary antibody, and Alexa 555 anti-rabbit IgG antibody (Goat Alexa 555 anti-rabbit IgG, Biotium) was used as a secondary antibody to fluorescently label with red color and visualized. In addition, for identification of the matured neurons, mouse anti-NeuN antibody (Mouse Anti-Neuronal Nuclei monoclonal antibody, Chemicon) was used as a primary antibody, and for visualization, a fluorescently labeled secondary antibody AMCA donkey anti-mouse IgG antibody (AMCA Donkey Anti-Mouse IgG, JACKSON) was used and stained to blue color. According to this procedure, newly matured cells were evaluated by Ki67+/NeuN+reaction (red+bluish white). The procedures of the fluorescent antibody method were shown below.
All data were expressed as an average value±standard error of each sample. […]

[3] = tested on: nerve injury due to epilepsy; details: rat, in vivo; cited from earlier work
[4] = tested on: spatial learning memory ability; experiment: Morris water maze (MWM): place learning escape training and probe test; format: in vivo, mouse; details: for escape time during place learning escape training: P<0.05
Description: as §2
as §1, with “four” for “three”, “(ME), 0.5% ASX uptake+rest (ASX),” for “(ME),”, “and the” for “and”, “(FIG. 5).” for “(each n=8).”
2-11. Evaluation of Spatial Learning Memory Ability: Morris Water Maze (MWM)
Evaluation of spatial learning memory ability was carried out.
Here, in order to clarify whether or not improvement of the hippocampal function due to the low intensity exercise is enhanced by ASX uptake, influence of combined use of the low intensity exercise of VT or less and 0.5% ASX uptake on AHN and spatial learning memory ability was investigated. For the evaluation of AHN, the numbers of proliferating cells (Ki67+), viable cells (BrdU+), and newly matured cells (BrdU+/NeuN+) were counted using immunohistochemical staining method and the result thereof was shown by the rate of change relative to the CON group. Also, the spatial learning memory ability was evaluated using the MWM with regard to acquiring ability (learning) of memory by the place learning escape training for 4 days, and retention and recollection ability of memory by the probe test on the fifth day.

[5] = in vivo; cited from earlier work
[6] = tested on: hippocampal mRNA expression; experiment: Hippocampal mRNA expression by RT-PCR; format: in vivo, mouse
Description: as §1
The brain was removed two days after 4 weeks training and ASX uptake. The hippocampus was fractionated from the collected brain (Hirano M, Rakwal R, Shibato J, Sawa H, Nagashima K, Ogawa Y, Yoshida Y, Iwahashi H, Niki E, Masuo Y. Proteomics- and transcriptomics-based screening of differentially expressed proteins and genes in brain of Wig rat: a model for attention deficit hyperactivity disorder (ADHD) research. J Proteome Res 7: 2471-2489, 2008). The hippocampus was immediately frozen with liquid nitrogen and stored in a freezer at −80° C.
In order to confirm the reproducibility and validity of the molecular mechanism estimated by the microarray and IPA analysis, 12 genes were picked up and the changes in their gene expression were reexamined by RT-PCR.
All data were expressed as an average value±standard error. For statistical processing of RT-PCR, after one-way analysis of variance (One-way ANOVA), the Bonferroni's tests method was used as post-hoc. All the significance levels were set to less than 5%.

[7] = tested on: neural progenitor cells; details: in vitro; cited from earlier work
[8] = ASX group compared with the CON group, P<0.05
[9] = ASX group: 0.5% ASX uptake + rest
[10] = ME+ASX group: low intensity exercise (7 m/min) + 0.5% ASX uptake

Compound: CC1=C(/C=C/C(C)=C/C=C/C(C)=C/C=C/C=C(C)/C=C/C=C(C)/C=C/C2=C(C)C(=O)[C@@H](O)CC2(C)C)C(C)(C)C[C@H](O)C1=O [ASX, astaxanthin]
- Igflr (insulin-like growth factor 1 receptor) gene expression (IPA network analysis) ([1]; ME+ASX group only): estimated to enhance
- Lep and Cxcr4 gene expression (IPA network analysis) ([1]; ME+ASX group, similar to the ME group): enhancement
- number of BrdU positive cells [2, 8]: significant increase
- number of BrdU/NeuN positive cells [2, 8]: significant increase
- number of Ki67 positive cells [2, 8]: significant increase
- number of newly matured cells (BrdU+/NeuN+), rate of change relative to the CON group [2, 9]: +46.3%
- number of proliferating cells (Ki67+), rate of change relative to the CON group [2, 9]: +16.9%
- number of viable cells (BrdU+), rate of change relative to the CON group [2, 9]: +44.9%
- effect of the combination of low intensity exercise and ASX uptake on AHN and hippocampal function, against the sum of the ME group and the ASX group ([2]; ME+ASX group): synergistically increases
- number of Ki67 positive cells ([2]; ME+ASX group compared with the ME group and the ASX group, P<0.001): significant increase
- number of BrdU positive cells ([2]; ME+ASX group compared with the ME group and the ASX group, P<0.05): significant increase
- number of newly matured cells (BrdU+/NeuN+), rate of change relative to the CON group [2, 10]: +102.9%
- number of proliferating cells (Ki67+), rate of change relative to the CON group [2, 10]: +52.3%
- number of viable cells (BrdU+), rate of change relative to the CON group [2, 10]: +95.7%
- protection against nerve injury due to epilepsy [3]: protect against nerve injury due to epilepsy
- spatial memory capacity, increase rate for the CON group ([4]; ASX group): 25.9%
- result of the MWM ([4]; ASX group, 0.5% ASX uptake): significantly improved
- escape time during place learning escape training ([4]; ASX group, fourth day): significant shortening
- probe test: ratio of the cumulative time of swimming within the quadrant where the platform existed to the total swimming time [4, 9]: 30.5%
- spatial memory capacity, increase rate for the CON group ([4]; ME+ASX group): 60.6%
- escape time during place learning escape training ([4]; ME+ASX group compared with the CON, third day): significant shortening
- probe test: ratio of the cumulative time of swimming within the quadrant where the platform existed to the total swimming time ([4]; ME+ASX group: low intensity exercise + 0.5% ASX uptake): 39.9%
- swimming speed ([4]; among the groups (CON, ME, ASX, ME+ASX)): no significant difference
- passage through the blood brain barrier [5]: moves through the blood brain barrier into the brain
- mRNA expression of Cxcr4, Stat3, Mapk1 and Jak2 ([6]; ME+ASX group (also in the ME group)): significantly increased
- mRNA expression of Psen1, Notch2, Igflr, Igfl, Pi3k and Creb ([6]; only in the ME+ASX group): increased significantly
- proliferation of neural progenitor cells [7]: enhances the proliferation of neural progenitor cells
